Experiment [1] can be described thus: Surface plasmon resonance binding to lipid bilayer, L1 chip, two-state model. The following applies: affinity constant of second step, K2 = ka2/kd2. An excerpt:
To investigate the mode of action of gH625-H7 and gH625-G7 and for comparisons with gH625[6], we used SPR. In a previous paper[7] we also reported the data for two control peptides: the melittin and the HIV fusion peptide (gp41-FP). Figure 6 reports the obtained sensorgrams of the binding and an increase of the RU signal intensity as a function of the peptide concentration can be observed. […] In particular, all the sensorgrams obtained for gH625[7] and gH625-G7 indicate the binding to the lipid surfaces is characterized by an initial fast association process which then slows down considerably towards the end of the peptide injection. The dissociation follows a similar trend, characterized by the signal falling rapidly at the end of injection when the peptide is no longer present and the buffer flow removes free or weekly bound peptide.
The average values for the rate constants obtained with the two-state model analysis are reported in Table 4 along with the affinity constant values (K A). The data clearly indicate the main influence on the overall binding constant of the fast association rate and slow dissociation rate of the first step.
We used a BIAcore 3000 analytical system (Biacore, Uppsala, Sweden) equipped with a L1 sensor chip which contains hydrophobic alkanethiol chains, with exposed polar head groups; a lipid bilayer was created by introducing liposomes to the chip. SUVs composed by DOPG/Chol (60/40) (80 μL, 0.5 mM) were applied to the chip surface at a flow rate of 2 μL/min. […] BSA was used as a negative control (25 μL, 50 μL/min […] in PBS) to confirm complete coverage of the nonspecific binding sites. Several sensorgrams were obtained with 30 μL of the peptide solutions injected at a flow rate of 5 μL/min, followed by PBS for 15 min to allow peptide dissociation. […]
Kinetic data were assessed through the χ^2 values, plots of the residuals from the model fitting and standard deviations. […]
(In general: SPR reads the build-up and loss of mass on a sensor chip optically.)

Experiment [2] is described as follows: Lipid mixing (NBD/Rho FRET membrane fusion). Particulars: lipid 0.1 mM, 25 °C. An excerpt: In order to gain insight into the ability to interact and perturb the lipid membrane, nitrobenzoxadiazole (NBD) and Rhodamine (Rho) were used as the donor and acceptor of fluorescence energy transfer. Dilution of labelled vesicles caused by peptide induced membrane fusion, determines a larger average distance between fluorescent and quenching lipids and thus a reduction in the fluorescence energy transfer efficiency. […] The three peptides interact more strongly with LUVs containing cholesterol, confirming the preference for more rigid membranes.
Figure 1 Peptide-promoted membrane fusion as determined by lipid mixing of gH625 (A), gH625-H7 (B) and gH625-G7 (C) in LUVs composed of: DOPG, DOPG/Chol 60/40 (mol/mol) and DOPC/Chol 60/40 (mol/mol). […] Lipid concentration is 0.1 mM. […] Panel D reports the peptide-promoted membrane fusion of the three peptides in DOPG/Chol LUVs 60/40 (mol/mol).
A cut off filter at 515 nm was used.

Positions of bridges follow the written chain, without caps; N, C: chain ends. Residues, ends and D or L forms follow the SMILES beside them. Chains are numbered I, II in the order given. No end group written: not given here.

Consider `CC[C@H](C)[C@H](NC(=O)[C@H](CC(C)C)NC(=O)[C@H](C)NC(=O)[C@H](CC(N)=O)NC(=O)[C@H](Cc1ccc(O)cc1)NC(=O)[C@H](Cc1c[nH]cn1)NC(=O)[C@H](C)NC(=O)[C@H](Cc1c[nH]c2ccccc12)NC(=O)[C@H](CCCNC(=N)N)NC(=O)[C@@H](NC(=O)[C@H](CC(C)C)NC(=O)[C@@H](NC(=O)[C@H](CO)NC(=O)[C@H](C)NC(=O)[C@H](CC(C)C)NC(=O)CNC(=O)[C@@H](N)Cc1c[nH]cn1)[C@@H](C)O)[C@@H](C)O)C(=O)N[C@@H](CCCNC(=N)N)C(=O)N[C@@H](C)C(=O)N[C@@H](Cc1ccccc1)C(=O)NCC(=O)NCC(=O)NCC(=O)N[C@@H](CCCCN)C(=O)N[C@@H](CCCCN)C(=O)N[C@@H](CCCCN)C(=O)N[C@@H](CCCCN)C(N)=O` [gH625-G7] (H-HGLASTLTRWAHYNALIRAFGGGKKKK-NH2), for which the K2 in experiment [1] is listed as 5.72. For “I: HGLASTLTRWAHYNALIRAFGCGKKKK-NH2 / II: HGLASTLTRWAHYNALIRAFGCGKKKK-NH2 (disulfide I:22-II:22) [gH625-H7]”, in experiment [2] (compared to the other peptides), the “lipid mixing activity in DOPG/Chol LUVs” value is given as “significantly higher activity”. This compound came in with a K2 in experiment [1] of 3.89. In the case of `CC[C@H](C)[C@H](NC(=O)[C@H](CC(C)C)NC(=O)[C@H](C)NC(=O)[C@H](CC(N)=O)NC(=O)[C@H](Cc1ccc(O)cc1)NC(=O)[C@H](Cc1c[nH]cn1)NC(=O)[C@H](C)NC(=O)[C@H](Cc1c[nH]c2ccccc12)NC(=O)[C@H](CCCNC(=N)N)NC(=O)[C@@H](NC(=O)[C@H](CC(C)C)NC(=O)[C@@H](NC(=O)[C@H](CO)NC(=O)[C@H](C)NC(=O)[C@H](CC(C)C)NC(=O)CNC(=O)[C@@H](N)Cc1c[nH]cn1)[C@@H](C)O)[C@@H](C)O)C(=O)N[C@@H](CCCNC(=N)N)C(=O)N[C@@H](C)C(=O)N[C@@H](Cc1ccccc1)C(N)=O` [gH625] (H-HGLASTLTRWAHYNALIRAF-NH2), the “lipid mixing activity in DOPG LUVs” value in experiment [2] (average of three experiments) was “less active than the other two”. This compound registered a K2 in experiment [1] of 0.41.

The values above are taken from PMC5572722, “Dimerization in tailoring uptake efficacy of the HSV-1 derived membranotropic peptide gH625” (Scientific Reports, 2017).
